Source: patent US10766902B2, “Wee-1 inhibiting pyrazolopyrimidinone compounds” (ALMAC DISCOVERY LIMITED, priority 2016, dated 2020)

Legend:
[1] = tested on: HT29 cells; experiment: Cell viability (CellTiter-Glo), HT29; assay type: cell-based; settings: Homo sapiens, HT-29; cell viability after 72 hours
Procedure: (§1) All cell lines (HT29, A427, A498, SKLU-1) were obtained from the American Type Culture Collection (ATCC), maintained in the recommended media supplemented with 10% (v/v) FBS, 1% (v/v) Penicillin/streptomycin and kept at 37° C. in a humidified atmosphere with 5% CO2. Cells were seeded in 96 wp format typically at a seeding density of 3500-5000 cells/well and treated after 24 hours with increasing concentration of compound from 0 to 100 μM in ½ log unit increments. Cell viability was assessed after 72 hours (HT29, A427) or after 6 days (SKLU-1, A498) by CellTiter-Glo® as recommended by the manufacturer's instructions (Promega). Analysis and EC50 values were derived using GraphPadPrism.

[2] = tested on: SK-LU-1 cells; experiment: Cell viability (CellTiter-Glo), SK-LU-1; assay type: cell-based; settings: Homo sapiens, SK-LU-1, 144 h; cell viability after 6 days
Procedure: as §1

[3] = tested on: panel of 50 kinases; experiment: Invitrogen SelectScreen Kinase Profiling Service, selectivity over the panel; assay type: biochemical; settings: compared with compounds of the prior art
From the text: (§2) Table 4 below highlights the selectivity of a representative compound of the invention, Example 5, against a panel of 50 kinases (assessed using the Invitrogen SelectScreen® Kinase Profiling Service).

[4] = target: ABL1 (Homo sapiens (Human), UniProt P00519); experiment: SelectScreen Kinase Profiling: ABL1; assay type: biochemical; settings: tested at 300-350 nM
From the text: as §2

[5] = target: ACVR1B (ALK4) (Homo sapiens (Human), UniProt P36896); experiment: SelectScreen Kinase Profiling: ACVR1B (ALK4); assay type: biochemical; settings: tested at 300-350 nM
From the text: as §2

[6] = target: AKT1 (PKB alpha) (Homo sapiens (Human), UniProt P31749); experiment: SelectScreen Kinase Profiling: AKT1 (PKB alpha); assay type: biochemical; settings: tested at 300-350 nM
From the text: as §2

[7] = target: BTK (Homo sapiens (Human), UniProt Q06187); experiment: SelectScreen Kinase Profiling: BTK; assay type: biochemical; settings: tested at 300-350 nM
From the text: as §2

[8] = target: CDK1/cyclin B (Homo sapiens (Human), UniProt P06493); experiment: SelectScreen Kinase Profiling: CDK1/cyclin B; assay type: biochemical; settings: tested at 300-350 nM
From the text: as §2

[9] = target: CSNK1G2 (CK1 gamma 2) (Homo sapiens (Human), UniProt P78368); experiment: SelectScreen Kinase Profiling: CSNK1G2 (CK1 gamma 2); assay type: biochemical; settings: tested at 300-350 nM
From the text: as §2

[10] = target: CSNK2A1 (CK2 alpha 1) (Homo sapiens (Human), UniProt P68400); experiment: SelectScreen Kinase Profiling: CSNK2A1 (CK2 alpha 1); assay type: biochemical; settings: tested at 300-350 nM
From the text: as §2

[11] = target: EGFR (ErbB1) (Homo sapiens (Human), UniProt P00533); experiment: SelectScreen Kinase Profiling: EGFR (ErbB1); assay type: biochemical; settings: tested at 300-350 nM
From the text: as §2

[12] = target: FGFR1 (Homo sapiens (Human), UniProt P11362); experiment: SelectScreen Kinase Profiling: FGFR1; assay type: biochemical; settings: tested at 300-350 nM
From the text: as §2

[13] = target: FLT3 (Homo sapiens (Human), UniProt P36888); experiment: SelectScreen Kinase Profiling: FLT3; assay type: biochemical; settings: tested at 300-350 nM
From the text: as §2

[14] = target: FRAP1 (mTOR) (Homo sapiens (Human), UniProt P42345); experiment: SelectScreen Kinase Profiling: FRAP1 (mTOR); assay type: biochemical; settings: tested at 300-350 nM
From the text: as §2

[15] = target: GSK3B (GSK3 beta) (Homo sapiens (Human), UniProt P49841); experiment: SelectScreen Kinase Profiling: GSK3B (GSK3 beta); assay type: biochemical; settings: tested at 300-350 nM
From the text: as §2

[16] = target: IKBKB (IKK beta) (Homo sapiens (Human), UniProt O14920); experiment: SelectScreen Kinase Profiling: IKBKB (IKK beta); assay type: biochemical; settings: tested at 300-350 nM
From the text: as §2

[17] = target: IRAK4 (Homo sapiens (Human), UniProt Q9NWZ3); experiment: SelectScreen Kinase Profiling: IRAK4; assay type: biochemical; settings: tested at 300-350 nM
From the text: as §2

[18] = target: JAK3 (Homo sapiens (Human), UniProt P52333); experiment: SelectScreen Kinase Profiling: JAK3; assay type: biochemical; settings: tested at 300-350 nM
From the text: as §2

[19] = target: LCK (Homo sapiens (Human), UniProt P06239); experiment: SelectScreen Kinase Profiling: LCK; assay type: biochemical; settings: tested at 300-350 nM
[20] = target: MAP4K4 (HGK) (Homo sapiens (Human), UniProt O95819); experiment: SelectScreen Kinase Profiling: MAP4K4 (HGK); assay type: biochemical; settings: tested at 300-350 nM
From the text: as §2

[21] = target: MAPK8 (JNK1) (Homo sapiens (Human), UniProt P45983); experiment: SelectScreen Kinase Profiling: MAPK8 (JNK1); assay type: biochemical; settings: tested at 300-350 nM
From the text: as §2

[22] = target: MAPKAPK2 (Homo sapiens (Human), UniProt P49137); experiment: SelectScreen Kinase Profiling: MAPKAPK2; assay type: biochemical; settings: tested at 300-350 nM
From the text: as §2

[23] = target: MARK2 (Homo sapiens (Human), UniProt Q7KZI7); experiment: SelectScreen Kinase Profiling: MARK2; assay type: biochemical; settings: tested at 300-350 nM
From the text: as §2

[24] = target: MET (cMet) (Homo sapiens (Human), UniProt P08581); experiment: SelectScreen Kinase Profiling: MET (cMet); assay type: biochemical; settings: tested at 300-350 nM
From the text: as §2

[25] = target: PDGFRB (PDGFR beta) (Homo sapiens (Human), UniProt P09619); experiment: SelectScreen Kinase Profiling: PDGFRB (PDGFR beta); assay type: biochemical; settings: tested at 300-350 nM
From the text: as §2

[26] = target: PHKG2 (Homo sapiens (Human), UniProt P15735); experiment: SelectScreen Kinase Profiling: PHKG2; assay type: biochemical; settings: tested at 300-350 nM
From the text: as §2

[27] = target: PLK1 (Homo sapiens (Human), UniProt P53350); experiment: SelectScreen Kinase Profiling: PLK1; assay type: biochemical; settings: tested at 300-350 nM
From the text: as §2

[28] = target: PRKACA (PKA) (Homo sapiens (Human), UniProt P17612); experiment: SelectScreen Kinase Profiling: PRKACA (PKA); assay type: biochemical; settings: tested at 300-350 nM
From the text: as §2

[29] = target: PRKCB1 (PKC beta I) (Homo sapiens (Human), UniProt P05771); experiment: SelectScreen Kinase Profiling: PRKCB1 (PKC beta I); assay type: biochemical; settings: tested at 300-350 nM
From the text: as §2

[30] = target: RPS6KB1 (p70S6K) (Homo sapiens (Human), UniProt P23443); experiment: SelectScreen Kinase Profiling: RPS6KB1 (p70S6K); assay type: biochemical; settings: tested at 300-350 nM
From the text: as §2

[31] = target: TEK (Tie2) (Homo sapiens (Human), UniProt Q02763); experiment: SelectScreen Kinase Profiling: TEK (Tie2); assay type: biochemical; settings: tested at 300-350 nM
From the text: as §2

PDGFRB (PDGFR beta), sequence (P09619 33-1106): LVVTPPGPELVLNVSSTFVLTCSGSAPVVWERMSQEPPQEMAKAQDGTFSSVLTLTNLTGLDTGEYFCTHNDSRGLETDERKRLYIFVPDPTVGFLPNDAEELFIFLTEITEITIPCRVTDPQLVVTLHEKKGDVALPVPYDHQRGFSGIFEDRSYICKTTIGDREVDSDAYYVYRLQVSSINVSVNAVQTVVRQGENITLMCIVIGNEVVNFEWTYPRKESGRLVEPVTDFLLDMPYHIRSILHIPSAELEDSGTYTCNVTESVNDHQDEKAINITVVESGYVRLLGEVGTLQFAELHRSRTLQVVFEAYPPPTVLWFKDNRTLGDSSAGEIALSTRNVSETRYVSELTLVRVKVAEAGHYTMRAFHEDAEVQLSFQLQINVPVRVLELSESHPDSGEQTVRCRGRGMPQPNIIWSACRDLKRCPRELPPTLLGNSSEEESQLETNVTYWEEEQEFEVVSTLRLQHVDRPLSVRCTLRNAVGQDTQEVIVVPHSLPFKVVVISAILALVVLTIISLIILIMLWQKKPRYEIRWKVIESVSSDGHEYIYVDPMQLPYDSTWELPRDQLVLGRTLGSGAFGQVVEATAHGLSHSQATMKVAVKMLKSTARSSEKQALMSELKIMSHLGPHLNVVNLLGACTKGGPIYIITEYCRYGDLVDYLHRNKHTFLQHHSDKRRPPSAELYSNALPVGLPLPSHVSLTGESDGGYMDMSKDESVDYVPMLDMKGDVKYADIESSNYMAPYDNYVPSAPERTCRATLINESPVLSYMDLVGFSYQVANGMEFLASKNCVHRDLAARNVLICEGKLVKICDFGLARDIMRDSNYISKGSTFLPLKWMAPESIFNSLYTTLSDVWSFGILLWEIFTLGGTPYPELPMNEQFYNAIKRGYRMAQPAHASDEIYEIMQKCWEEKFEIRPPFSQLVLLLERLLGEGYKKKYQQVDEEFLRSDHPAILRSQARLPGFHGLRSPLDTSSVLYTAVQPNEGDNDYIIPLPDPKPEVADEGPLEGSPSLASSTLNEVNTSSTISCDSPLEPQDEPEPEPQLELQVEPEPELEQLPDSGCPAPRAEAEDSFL
MARK2, sequence (Q7KZI7 whole entry): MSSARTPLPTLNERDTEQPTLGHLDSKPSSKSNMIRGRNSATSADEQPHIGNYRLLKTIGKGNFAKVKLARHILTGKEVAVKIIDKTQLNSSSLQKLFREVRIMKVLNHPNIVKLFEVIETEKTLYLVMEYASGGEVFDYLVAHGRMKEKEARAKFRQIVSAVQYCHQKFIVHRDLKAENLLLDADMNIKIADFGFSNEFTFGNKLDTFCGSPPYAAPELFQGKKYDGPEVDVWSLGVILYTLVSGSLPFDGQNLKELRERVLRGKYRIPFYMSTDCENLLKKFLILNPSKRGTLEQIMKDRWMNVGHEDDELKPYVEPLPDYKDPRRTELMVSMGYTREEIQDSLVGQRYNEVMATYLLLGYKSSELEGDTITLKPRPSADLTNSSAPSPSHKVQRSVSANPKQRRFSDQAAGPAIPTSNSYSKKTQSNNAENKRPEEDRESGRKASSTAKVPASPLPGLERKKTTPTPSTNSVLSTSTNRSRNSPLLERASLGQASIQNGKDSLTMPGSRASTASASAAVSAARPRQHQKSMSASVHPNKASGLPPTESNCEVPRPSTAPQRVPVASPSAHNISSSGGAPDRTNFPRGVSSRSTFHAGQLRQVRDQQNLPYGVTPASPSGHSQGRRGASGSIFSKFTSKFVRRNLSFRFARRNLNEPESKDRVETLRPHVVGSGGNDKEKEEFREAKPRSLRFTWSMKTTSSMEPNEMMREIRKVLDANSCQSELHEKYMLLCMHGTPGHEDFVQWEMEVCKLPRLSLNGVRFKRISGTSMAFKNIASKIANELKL
PHKG2, sequence (P15735 whole entry): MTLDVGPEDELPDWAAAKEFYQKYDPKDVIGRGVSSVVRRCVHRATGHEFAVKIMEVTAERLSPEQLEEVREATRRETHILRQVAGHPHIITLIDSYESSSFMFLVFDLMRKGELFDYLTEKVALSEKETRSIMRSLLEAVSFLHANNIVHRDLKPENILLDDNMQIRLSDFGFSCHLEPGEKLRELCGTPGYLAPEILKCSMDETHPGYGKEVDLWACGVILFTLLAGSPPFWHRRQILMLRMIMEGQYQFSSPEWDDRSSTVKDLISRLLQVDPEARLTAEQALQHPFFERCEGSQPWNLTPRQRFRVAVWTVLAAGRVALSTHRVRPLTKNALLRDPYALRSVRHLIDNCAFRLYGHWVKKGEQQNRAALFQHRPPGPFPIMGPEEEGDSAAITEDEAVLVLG
MAPK8 (JNK1), sequence (P45983 whole entry): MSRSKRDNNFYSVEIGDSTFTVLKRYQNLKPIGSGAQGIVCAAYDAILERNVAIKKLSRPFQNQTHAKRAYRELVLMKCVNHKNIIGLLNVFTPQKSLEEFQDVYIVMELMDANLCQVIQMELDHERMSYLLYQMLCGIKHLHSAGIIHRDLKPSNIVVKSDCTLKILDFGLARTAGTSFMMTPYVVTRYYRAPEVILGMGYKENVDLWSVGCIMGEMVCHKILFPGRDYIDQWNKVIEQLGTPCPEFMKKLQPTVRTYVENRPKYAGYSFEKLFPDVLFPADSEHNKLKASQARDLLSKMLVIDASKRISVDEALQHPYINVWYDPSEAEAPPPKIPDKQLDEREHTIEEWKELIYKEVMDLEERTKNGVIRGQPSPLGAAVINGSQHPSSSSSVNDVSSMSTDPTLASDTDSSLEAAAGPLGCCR
MAPKAPK2, sequence (P49137 whole entry): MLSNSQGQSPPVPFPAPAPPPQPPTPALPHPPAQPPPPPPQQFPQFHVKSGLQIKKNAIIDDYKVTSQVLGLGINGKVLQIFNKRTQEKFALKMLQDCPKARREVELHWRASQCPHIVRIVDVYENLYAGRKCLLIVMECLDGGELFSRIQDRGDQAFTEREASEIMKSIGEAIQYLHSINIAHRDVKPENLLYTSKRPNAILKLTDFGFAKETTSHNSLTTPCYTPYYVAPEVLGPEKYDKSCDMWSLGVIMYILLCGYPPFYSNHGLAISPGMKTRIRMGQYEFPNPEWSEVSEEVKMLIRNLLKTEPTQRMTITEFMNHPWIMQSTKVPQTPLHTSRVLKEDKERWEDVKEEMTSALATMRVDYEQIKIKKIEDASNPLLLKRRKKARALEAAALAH
CDK1/cyclin B, sequence (P06493 whole entry): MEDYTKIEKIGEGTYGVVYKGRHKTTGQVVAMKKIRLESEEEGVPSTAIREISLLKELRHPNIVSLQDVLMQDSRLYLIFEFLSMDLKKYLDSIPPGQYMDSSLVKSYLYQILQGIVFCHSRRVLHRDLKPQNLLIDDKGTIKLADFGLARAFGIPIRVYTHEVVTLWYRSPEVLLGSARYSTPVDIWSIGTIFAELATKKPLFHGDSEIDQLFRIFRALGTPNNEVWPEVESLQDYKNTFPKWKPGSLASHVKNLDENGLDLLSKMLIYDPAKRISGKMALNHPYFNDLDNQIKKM
CDK1/cyclin B, sequence (P14635 whole entry partner): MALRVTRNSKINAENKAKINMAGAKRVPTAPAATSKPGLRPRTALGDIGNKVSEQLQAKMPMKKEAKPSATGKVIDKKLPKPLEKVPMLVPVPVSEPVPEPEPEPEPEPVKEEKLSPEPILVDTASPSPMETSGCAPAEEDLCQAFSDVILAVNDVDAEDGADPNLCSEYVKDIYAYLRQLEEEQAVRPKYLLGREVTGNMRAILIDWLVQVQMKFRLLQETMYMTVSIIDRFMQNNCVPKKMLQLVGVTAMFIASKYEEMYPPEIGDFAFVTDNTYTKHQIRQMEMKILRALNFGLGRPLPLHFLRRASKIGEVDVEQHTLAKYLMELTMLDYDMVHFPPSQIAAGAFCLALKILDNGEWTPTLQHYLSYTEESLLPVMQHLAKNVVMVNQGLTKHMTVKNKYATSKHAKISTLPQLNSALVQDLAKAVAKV
JAK3, sequence (P52333 whole entry): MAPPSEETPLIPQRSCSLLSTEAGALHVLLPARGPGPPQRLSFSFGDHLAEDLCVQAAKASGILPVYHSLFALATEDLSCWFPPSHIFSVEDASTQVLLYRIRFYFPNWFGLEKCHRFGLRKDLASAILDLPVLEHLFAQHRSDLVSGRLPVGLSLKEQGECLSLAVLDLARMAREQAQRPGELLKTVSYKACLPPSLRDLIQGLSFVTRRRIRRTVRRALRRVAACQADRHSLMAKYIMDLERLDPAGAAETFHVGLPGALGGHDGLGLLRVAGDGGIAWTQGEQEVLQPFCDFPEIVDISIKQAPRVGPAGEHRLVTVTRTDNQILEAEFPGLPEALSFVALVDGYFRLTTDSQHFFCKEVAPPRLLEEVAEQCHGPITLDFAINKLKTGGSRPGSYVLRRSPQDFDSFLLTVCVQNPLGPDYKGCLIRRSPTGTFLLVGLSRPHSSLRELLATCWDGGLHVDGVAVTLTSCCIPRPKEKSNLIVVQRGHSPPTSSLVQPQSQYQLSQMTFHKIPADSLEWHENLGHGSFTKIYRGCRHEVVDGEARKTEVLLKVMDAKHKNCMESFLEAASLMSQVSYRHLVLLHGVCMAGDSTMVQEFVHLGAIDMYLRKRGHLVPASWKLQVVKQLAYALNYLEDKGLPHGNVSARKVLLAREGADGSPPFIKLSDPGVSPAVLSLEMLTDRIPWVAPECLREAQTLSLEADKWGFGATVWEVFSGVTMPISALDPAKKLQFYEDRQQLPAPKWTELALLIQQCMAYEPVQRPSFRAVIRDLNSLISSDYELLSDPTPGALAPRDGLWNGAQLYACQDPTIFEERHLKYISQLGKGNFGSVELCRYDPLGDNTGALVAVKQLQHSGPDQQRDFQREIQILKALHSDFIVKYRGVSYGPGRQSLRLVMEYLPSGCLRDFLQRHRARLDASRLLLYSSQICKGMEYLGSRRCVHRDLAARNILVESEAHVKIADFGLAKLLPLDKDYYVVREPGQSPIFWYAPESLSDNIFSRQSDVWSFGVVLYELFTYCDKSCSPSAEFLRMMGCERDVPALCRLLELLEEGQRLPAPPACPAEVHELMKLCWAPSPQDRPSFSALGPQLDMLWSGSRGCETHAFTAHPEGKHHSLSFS

C=CCn1c(=O)c2cnc(Nc3ccc(N4CCN(C)CC4)cc3)nc2n1-c1cccc(N=S(C)(C)=O)n1 [Example 5, 1-(6-{[Dimethyl(oxo)-λ^6-sulfanylidene]amino}pyridine-2-yl)-6-{[4-(4-methylpiperazin-1-yl)phenyl]amino}-2-(prop-2-en-1-yl)-1H,2H,3H-pyrazolo[3,4-d]pyrimidin-3-one]
EC50 [1]: 33 nM
EC50 [2]: 12 nM
selectivity against a panel of 50 kinases [3]: greater selectivity
inhibition of ABL1 [4]: − (inhibition under 50% (tested at 300-350 nM))
inhibition of ACVR1B (ALK4) [5]: − (inhibition under 50% (tested at 300-350 nM))
inhibition of AKT1 (PKB alpha) [6]: − (inhibition under 50% (tested at 300-350 nM))
inhibition of BTK [7]: − (inhibition under 50% (tested at 300-350 nM))
inhibition of CDK1/cyclin B [8]: − (inhibition under 50% (tested at 300-350 nM))
inhibition of CSNK1G2 (CK1 gamma 2) [9]: − (inhibition under 50% (tested at 300-350 nM))
inhibition of CSNK2A1 (CK2 alpha 1) [10]: − (inhibition under 50% (tested at 300-350 nM))
inhibition of EGFR (ErbB1) [11]: − (inhibition under 50% (tested at 300-350 nM))
inhibition of FGFR1 [12]: − (inhibition under 50% (tested at 300-350 nM))
inhibition of FLT3 [13]: − (inhibition under 50% (tested at 300-350 nM))
inhibition of FRAP1 (mTOR) [14]: − (inhibition under 50% (tested at 300-350 nM))
inhibition of GSK3B (GSK3 beta) [15]: − (inhibition under 50% (tested at 300-350 nM))
inhibition of IKBKB (IKK beta) [16]: − (inhibition under 50% (tested at 300-350 nM))
inhibition of IRAK4 [17]: − (inhibition under 50% (tested at 300-350 nM))
inhibition of JAK3 [18]: − (inhibition under 50% (tested at 300-350 nM))
inhibition of LCK [19]: − (inhibition under 50% (tested at 300-350 nM))
inhibition of MAP4K4 (HGK) [20]: − (inhibition under 50% (tested at 300-350 nM))
inhibition of MAPK8 (JNK1) [21]: − (inhibition under 50% (tested at 300-350 nM))
inhibition of MAPKAPK2 [22]: − (inhibition under 50% (tested at 300-350 nM))
inhibition of MARK2 [23]: − (inhibition under 50% (tested at 300-350 nM))
inhibition of MET (cMet) [24]: − (inhibition under 50% (tested at 300-350 nM))
inhibition of PDGFRB (PDGFR beta) [25]: − (inhibition under 50% (tested at 300-350 nM))
inhibition of PHKG2 [26]: − (inhibition under 50% (tested at 300-350 nM))
inhibition of PLK1 [27]: − (inhibition under 50% (tested at 300-350 nM))
inhibition of PRKACA (PKA) [28]: − (inhibition under 50% (tested at 300-350 nM))
inhibition of PRKCB1 (PKC beta I) [29]: − (inhibition under 50% (tested at 300-350 nM))
inhibition of RPS6KB1 (p70S6K) [30]: − (inhibition under 50% (tested at 300-350 nM))
inhibition of TEK (Tie2) [31]: − (inhibition under 50% (tested at 300-350 nM))
